Source: the NIST ThermoML archive (doi:10.1021/je200816z)
± gives the expanded uncertainty stated by the source.

Conditions: 351.21 K; Liquid

vapor or sublimation pressure: 100 ± 0.9 kPa
SMILES: CCO [ethanol]
